Data on 23 molecules can be found in patent US9568466B2, “In vitro assay for predicting renal proximal tubular cell toxicity” (priority 2012, dated 2017).

One series deals with renal proximal tubule.
Test: not given
As to conditions: in vivo; cited from earlier work.
Take `CCOc1ccc(NC(C)=O)cc1` [Compound 24, Phenacetin]: the “nephrotoxicity in humans / direct damage of the renal proximal tubule” value (“nephrotoxicity in humans / direct damage” below) is “nephrotoxic in humans, but do not damage directly the renal proximal tubule”. Consider `COc1ccc2[nH]cc(CCNC(C)=O)c2c1` [Compound 37, Melatonin], for which the “nephrotoxicity in humans / direct damage” value was “non-nephrotoxic in humans”. Consider `[Cl-].[Li+]` [Compound 28, Lithium chloride], for which the “nephrotoxicity in humans / direct damage” value is recorded as “nephrotoxic in humans, but do not damage directly the renal proximal tubule”.

For the molecule `CO[C@H]1/C=C/O[C@@]2(C)Oc3c(C)c(O)c4c(O)c(c(/C=N/N5CCN(C)CC5)c(O)c4c3C2=O)NC(=O)/C(C)=C\C=C\[C@H](C)[C@H](O)[C@@H](C)[C@@H](O)[C@@H](C)[C@H](OC(C)=O)[C@@H]1C` [Compound 3, Rifampicin], the “nephrotoxicity in humans / direct damage” value was “nephrotoxic in humans and damage directly the renal proximal tubule”.

In the case of `O=P1(NCCCl)OCCCN1CCCl` (stereo not shown) [Compound 9, Ifosfamide], the “nephrotoxicity in humans / direct damage” value was “nephrotoxic in humans and damage directly the renal proximal tubule”. For `CC1=C2C(=CO[C@H](C)[C@H]2C)C(O)=C(C(=O)O)C1=O` [Compound 21, Citrinin], the “nephrotoxicity in humans / direct damage” value is “nephrotoxic in humans and damage directly the renal proximal tubule”. Turning to `NCC(=O)O` [Compound 35, Glycine], the “nephrotoxicity in humans / direct damage” value was “non-nephrotoxic in humans”. As to `[Ge+4].[O-2].[O-2]` [Compound 15, Germanium(IV) oxide], the “nephrotoxicity in humans / direct damage” value is “nephrotoxic in humans and damage directly the renal proximal tubule”. In the case of `NC[C@H]1O[C@H](O[C@H]2[C@H](O)[C@@H](O[C@H]3O[C@H](CO)[C@@H](O)[C@H](N)[C@H]3O)[C@H](N)C[C@@H]2N)[C@H](N)C[C@@H]1O` [Compound 2, Tobramycin], the “nephrotoxicity in humans / direct damage” value was “nephrotoxic in humans and damage directly the renal proximal tubule”.

With `O=c1[nH]cc(F)c(=O)[nH]1` [Compound 7, 5-Fluorouracil], the “nephrotoxicity in humans / direct damage” value is “nephrotoxic in humans and damage directly the renal proximal tubule”. Consider `N[C@@H](Cc1cc(I)c(Oc2ccc(O)c(I)c2)c(I)c1)C(=O)O` [Compound 39, Triiodothyronine], for which the “nephrotoxicity in humans / direct damage” value was “non-nephrotoxic in humans”. As for `C[n+]1ccc(-c2cc[n+](C)cc2)cc1` [Compound 10, Paraquat], the “nephrotoxicity in humans / direct damage” value was “nephrotoxic in humans and damage directly the renal proximal tubule”. As to `C=CC[C@@H]1/C=C(\C)C[C@H](C)C[C@H](OC)[C@H]2O[C@@](O)(C(=O)C(=O)N3CCCC[C@H]3C(=O)O[C@H](/C(C)=C/[C@@H]3CC[C@@H](O)[C@H](OC)C3)[C@H](C)[C@@H](O)CC1=O)[C@H](C)C[C@@H]2OC` [Compound 19, Tacrolimus], the “nephrotoxicity in humans / direct damage” value was “nephrotoxic in humans and damage directly the renal proximal tubule”. Regarding `N[C@@H](Cc1ccc(O)c(O)c1)C(=O)O` [Compound 38, Levodopa (DOPA)], the “nephrotoxicity in humans / direct damage” value is “non-nephrotoxic in humans”.

For the molecule `C[C@@H]1C[C@H]2[C@@H]3CCC4=CC(=O)C=C[C@]4(C)[C@@]3(F)[C@@H](O)C[C@]2(C)[C@@]1(O)C(=O)CO` [Compound 36, Dexamethasone], the “nephrotoxicity in humans / direct damage” value was “non-nephrotoxic in humans”. `COc1ccc(C[C@H](N)C(=O)N[C@H]2[C@@H](O)[C@H](n3cnc4c(N(C)C)ncnc43)O[C@@H]2CO)cc1` [Compound 5, Puromycin]: the “nephrotoxicity in humans / direct damage” value was “nephrotoxic in humans and damage directly the renal proximal tubule”. On to `CCC[C@@H]1C[C@@H](C(=O)N[C@@H]([C@H]2O[C@H](SC)[C@H](O)[C@@H](O)[C@H]2O)[C@@H](C)O)N(C)C1` [Compound 32, Lincomycin], for which the “nephrotoxicity in humans / direct damage” value is recorded as “nephrotoxic in humans, but do not damage directly the renal proximal tubule”.

As to `CC(=O)OCC1=C(C(=O)O)N2C(=O)[C@@H](NC(=O)CCC[C@@H](N)C(=O)O)[C@H]2SC1` [Compound 6, Cephalosporin C], the “nephrotoxicity in humans / direct damage” value is “nephrotoxic in humans and damage directly the renal proximal tubule”.

Regarding `Cl[C@H]1[C@H](Cl)[C@@H](Cl)[C@@H](Cl)[C@H](Cl)[C@H]1Cl` [Compound 29, Lindane], the “nephrotoxicity in humans / direct damage” value was “nephrotoxic in humans, but do not damage directly the renal proximal tubule”. For the molecule `CC(C)[C@H](N)C(=O)OCCOCn1cnc2c(=O)[nH]c(N)nc21` [Compound 31, Valacyclovir], the “nephrotoxicity in humans / direct damage” value is reported as “nephrotoxic in humans, but do not damage directly the renal proximal tubule”. For the molecule Gentamicin, the “nephrotoxicity in humans / direct damage” value was “nephrotoxic in humans and damage directly the renal proximal tubule”. As to `[Cl][Au]` [Compound 16, Gold(I) chloride], the “nephrotoxicity in humans / direct damage” value was “nephrotoxic in humans and damage directly the renal proximal tubule”. For the molecule `OCCO` [Compound 30, Ethylene glycol], the “nephrotoxicity in humans / direct damage” value was “nephrotoxic in humans, but do not damage directly the renal proximal tubule”.

A further series relates to human primary renal proximal tubular cells (HPTC). As to the kind of experiment: HPTC exposed to test compound, nuclear staining and F-actin detection, morphology and cell numbers. As to conditions: HPTC isolated from fresh human kidney samples; 0.2 mg/ml; 16 hours.
Take Gentamicin: the “cell numbers (number of cell nuclei)” value is on record as “decrease in cell numbers” and the “morphological changes (F-actin)” value was “morphological changes”.
